{
  "source": "patent US8900590B2",
  "about": "(priority 2010, dated 2014)",
  "system": "H1N1 A/California/04/09",
  "type": "in vivo, DBA/2 mice",
  "settings": "18 days",
  "data": [
    {"smiles": "CCOC(=O)C1=C[C@@H](OC(CC)CC)[C@H](NC(C)=O)[C@@H](N)C1", "note": "[oseltamivir]", "values": [
      {"measurement": "animals survived", "result": "no survival"}
    ]}
  ]
}
